Experimental data published in ChEMBL document CHEMBL5665443, “Enzyme Inhibitor Single Concentration assay results for EUbOPEN Chemogenomics Library” (2024).

Key:
[1] = target: T1, Endonuclease 8-like 2 (Homo sapiens) (UniProt Q969S2); details: Hit No;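 also: fluorescence at 594 nm reports NEIL2 cutting and release of a quenched double-stranded DNA oligo substrate, reduced signal read as inhibition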
T1 sequence (whole entry): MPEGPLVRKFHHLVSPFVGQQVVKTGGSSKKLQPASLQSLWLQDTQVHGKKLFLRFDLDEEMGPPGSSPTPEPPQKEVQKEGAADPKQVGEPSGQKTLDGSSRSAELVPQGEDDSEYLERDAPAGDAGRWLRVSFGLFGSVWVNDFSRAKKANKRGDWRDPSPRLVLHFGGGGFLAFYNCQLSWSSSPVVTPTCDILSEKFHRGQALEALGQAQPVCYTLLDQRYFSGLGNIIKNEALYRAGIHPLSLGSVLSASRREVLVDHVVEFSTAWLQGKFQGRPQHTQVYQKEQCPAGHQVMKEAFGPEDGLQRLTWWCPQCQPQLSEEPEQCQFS

[2] = target: T2, Single-strand selective monofunctional uracil DNA glycosylase (Homo sapiens) (UniProt Q53HV7); details: Hit No;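 also: enzymatic SMUG1 assay coupled with APE1, reading fluorescence at 594 nm released when a quenched double-stranded DNA oligonucleotide substrate is cleaved and separated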
T2 sequence (whole entry): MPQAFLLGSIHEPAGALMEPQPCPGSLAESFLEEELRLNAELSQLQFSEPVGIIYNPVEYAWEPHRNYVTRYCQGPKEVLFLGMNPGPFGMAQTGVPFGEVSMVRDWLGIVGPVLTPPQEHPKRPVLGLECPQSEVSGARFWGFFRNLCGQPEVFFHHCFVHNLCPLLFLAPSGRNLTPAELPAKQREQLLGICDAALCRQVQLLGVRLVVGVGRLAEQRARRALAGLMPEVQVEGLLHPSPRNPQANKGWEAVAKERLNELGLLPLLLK

[3] = target: N-glycosylase/DNA lyase (Homo sapiens) (UniProt O15527);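 also: OGG1 cleavage of a quenched duplex DNA oligonucleotide, coupled to APE1 for strand incision, read as fluorescence at 594 nm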
[4] = target: T3, Adenine DNA glycosylase (Homo sapiens) (UniProt Q9UIF7); details: Hit No;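 also: human MUTYH activity read as 594 nm fluorescence from cleavage and release of a quenched DNA duplex, coupled with APE1 for strand incision, lower signal meaning inhibition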
T3 sequence (whole entry): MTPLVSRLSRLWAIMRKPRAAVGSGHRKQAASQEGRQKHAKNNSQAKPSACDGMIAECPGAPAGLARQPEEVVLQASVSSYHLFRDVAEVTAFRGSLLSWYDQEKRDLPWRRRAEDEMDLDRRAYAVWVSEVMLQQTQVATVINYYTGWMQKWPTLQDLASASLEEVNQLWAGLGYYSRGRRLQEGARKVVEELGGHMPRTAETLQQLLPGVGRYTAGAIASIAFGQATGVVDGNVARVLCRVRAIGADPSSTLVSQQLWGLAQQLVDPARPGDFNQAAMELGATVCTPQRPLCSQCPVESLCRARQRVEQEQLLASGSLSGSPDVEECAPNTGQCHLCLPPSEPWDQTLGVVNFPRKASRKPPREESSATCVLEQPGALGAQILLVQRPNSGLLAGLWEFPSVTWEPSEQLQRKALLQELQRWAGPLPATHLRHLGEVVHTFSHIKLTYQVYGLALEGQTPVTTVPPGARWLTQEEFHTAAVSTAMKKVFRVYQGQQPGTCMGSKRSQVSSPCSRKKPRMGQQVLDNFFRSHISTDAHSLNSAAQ

[5] = target: G/T mismatch-specific thymine DNA glycosylase (Homo sapiens) (UniProt Q13569); details: Hit No;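 also: human TDG cleavage of quenched duplex DNA oligonucleotides coupled to APE1, strand release read as fluorescence at 594 nm, inhibition of TDG activity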
[6] = target: Endonuclease 8-like 1 (Homo sapiens) (UniProt Q96FI4); details: Hit No;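 also: fluorescence at 594 nm from quenched duplex DNA oligonucleotides released by NEIL1 cleavage and strand separation, reported as reduction of this enzyme activity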
[7] = target: Uracil-DNA glycosylase (Homo sapiens) (UniProt P13051); details: Hit No;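 also: UNG excision on a quenched double-stranded DNA oligo probe, with APE1 added for strand incision and turnover, read as fluorescence at 594 nm as strands separate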
[8] = target: Methyl-CpG-binding domain protein 4 (Homo sapiens) (UniProt O95243); details: Hit No;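 also: MBD4 activity read as fluorescence at 594 nm from cleavage and release of a quenched duplex DNA oligonucleotide, with APE1 coupled to incise the strand and raise turnover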
[9] = target: T4, Endonuclease III-like protein 1 (Homo sapiens) (UniProt P78549); details: Hit No;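 also: enzyme assay tracking NTHL1 cutting and release of a quenched double-stranded DNA oligo substrate, read as fluorescence at 594 nm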
T4 sequence (whole entry): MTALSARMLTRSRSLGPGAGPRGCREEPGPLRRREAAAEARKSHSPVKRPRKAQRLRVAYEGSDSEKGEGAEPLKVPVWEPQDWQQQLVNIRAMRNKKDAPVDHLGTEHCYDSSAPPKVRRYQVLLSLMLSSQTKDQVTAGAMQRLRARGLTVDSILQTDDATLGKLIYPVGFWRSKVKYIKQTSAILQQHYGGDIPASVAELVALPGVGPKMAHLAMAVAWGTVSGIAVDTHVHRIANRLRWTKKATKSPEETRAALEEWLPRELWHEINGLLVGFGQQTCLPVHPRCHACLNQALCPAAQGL

[10] = Compound Concentration 10.0 uM, Hit No
[11] = Compound Concentration 1.0 uM, Hit No

N-glycosylase/DNA lyase (Homo sapiens), sequence (O15527 whole entry): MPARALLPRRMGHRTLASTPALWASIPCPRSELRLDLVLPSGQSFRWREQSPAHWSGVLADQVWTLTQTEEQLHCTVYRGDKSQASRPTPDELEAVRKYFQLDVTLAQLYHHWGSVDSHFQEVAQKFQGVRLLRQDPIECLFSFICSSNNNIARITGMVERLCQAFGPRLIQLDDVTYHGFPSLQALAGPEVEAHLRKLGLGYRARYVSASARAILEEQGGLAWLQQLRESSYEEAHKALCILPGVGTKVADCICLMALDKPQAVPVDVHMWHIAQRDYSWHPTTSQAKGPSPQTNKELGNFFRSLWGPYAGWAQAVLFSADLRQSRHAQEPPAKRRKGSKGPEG
Endonuclease 8-like 1 (Homo sapiens), sequence (Q96FI4 whole entry): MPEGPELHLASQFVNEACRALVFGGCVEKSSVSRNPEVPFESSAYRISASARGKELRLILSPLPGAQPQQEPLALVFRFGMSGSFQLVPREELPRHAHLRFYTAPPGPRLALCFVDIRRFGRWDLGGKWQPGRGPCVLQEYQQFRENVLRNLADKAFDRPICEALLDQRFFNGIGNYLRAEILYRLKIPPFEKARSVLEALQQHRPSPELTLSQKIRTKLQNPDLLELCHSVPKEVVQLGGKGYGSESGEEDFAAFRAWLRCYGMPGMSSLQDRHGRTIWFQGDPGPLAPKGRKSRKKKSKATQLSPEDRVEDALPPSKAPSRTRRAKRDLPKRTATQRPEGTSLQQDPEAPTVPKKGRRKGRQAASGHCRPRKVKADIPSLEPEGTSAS
G/T mismatch-specific thymine DNA glycosylase (Homo sapiens), sequence (Q13569 whole entry): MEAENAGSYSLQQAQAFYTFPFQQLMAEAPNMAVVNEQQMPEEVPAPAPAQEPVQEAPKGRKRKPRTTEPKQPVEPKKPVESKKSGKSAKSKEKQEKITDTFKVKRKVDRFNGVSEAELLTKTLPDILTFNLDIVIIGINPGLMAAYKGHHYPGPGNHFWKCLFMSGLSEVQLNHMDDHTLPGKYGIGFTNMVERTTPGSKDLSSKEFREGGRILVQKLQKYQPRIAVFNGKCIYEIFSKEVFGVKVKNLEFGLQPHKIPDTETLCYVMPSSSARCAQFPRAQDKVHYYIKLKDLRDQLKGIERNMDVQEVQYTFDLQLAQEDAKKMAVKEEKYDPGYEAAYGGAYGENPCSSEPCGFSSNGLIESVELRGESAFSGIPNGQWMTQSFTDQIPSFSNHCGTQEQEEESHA
Uracil-DNA glycosylase (Homo sapiens), sequence (P13051 whole entry, the tested form may be a part): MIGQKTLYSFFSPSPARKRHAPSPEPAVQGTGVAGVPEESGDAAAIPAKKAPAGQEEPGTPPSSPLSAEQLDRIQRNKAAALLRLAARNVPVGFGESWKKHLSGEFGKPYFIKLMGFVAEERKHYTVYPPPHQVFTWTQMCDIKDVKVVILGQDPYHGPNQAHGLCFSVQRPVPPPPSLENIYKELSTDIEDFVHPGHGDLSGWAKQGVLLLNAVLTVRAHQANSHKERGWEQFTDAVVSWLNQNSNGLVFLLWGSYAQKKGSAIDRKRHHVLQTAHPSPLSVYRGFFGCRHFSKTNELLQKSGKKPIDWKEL
Methyl-CpG-binding domain protein 4 (Homo sapiens), sequence (O95243 whole entry, the tested form may be a part): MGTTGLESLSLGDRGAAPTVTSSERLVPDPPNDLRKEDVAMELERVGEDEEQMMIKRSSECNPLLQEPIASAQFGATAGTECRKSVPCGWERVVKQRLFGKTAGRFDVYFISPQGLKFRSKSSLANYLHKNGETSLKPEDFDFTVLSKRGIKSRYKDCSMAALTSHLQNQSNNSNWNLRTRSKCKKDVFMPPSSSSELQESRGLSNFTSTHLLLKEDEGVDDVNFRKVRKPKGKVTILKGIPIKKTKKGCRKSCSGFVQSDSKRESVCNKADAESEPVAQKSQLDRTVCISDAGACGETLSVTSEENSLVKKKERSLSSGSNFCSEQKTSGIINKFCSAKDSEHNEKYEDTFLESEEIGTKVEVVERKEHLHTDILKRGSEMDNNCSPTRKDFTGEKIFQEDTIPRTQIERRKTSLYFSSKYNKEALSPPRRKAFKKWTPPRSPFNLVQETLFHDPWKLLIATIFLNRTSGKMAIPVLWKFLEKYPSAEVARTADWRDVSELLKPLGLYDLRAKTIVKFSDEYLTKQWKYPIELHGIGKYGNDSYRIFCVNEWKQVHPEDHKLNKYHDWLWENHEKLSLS

SMILES	inhibition ([1]; Compound Concentration 10.0 uM) [%]	inhibition ([2]; Compound Concentration 10.0 uM) [%]	inhibition [3, 10] [%]	inhibition ([4]; Compound Concentration 10.0 uM) [%]	inhibition ([5]; Compound Concentration 10.0 uM) [%]	inhibition ([6]; Compound Concentration 10.0 uM) [%]	inhibition ([7]; Compound Concentration 10.0 uM) [%]	inhibition ([8]; Compound Concentration 10.0 uM) [%]	inhibition ([9]; Compound Concentration 10.0 uM) [%]	inhibition ([1]; Compound Concentration 1.0 uM) [%]	inhibition ([2]; Compound Concentration 1.0 uM) [%]	inhibition [3, 11] [%]	inhibition ([4]; Compound Concentration 1.0 uM) [%]	inhibition ([5]; Compound Concentration 1.0 uM) [%]	inhibition ([6]; Compound Concentration 1.0 uM) [%]	inhibition ([7]; Compound Concentration 1.0 uM) [%]	inhibition ([8]; Compound Concentration 1.0 uM) [%]	inhibition ([9]; Compound Concentration 1.0 uM) [%]	inhibition ([3]; Compound Concentration 10.0 uM, Hit Yes) [%]
CC(=O)Nc1nc(CN2CCC[C@H](Cc3cc(C)nc(C)c3)C2)cs1	3.85	19	13.6	17.8	45.8	1.68	7.98	81.4	9.23	–	–	–	–	–	–	–	–	–	–
CCCCN(Cc1ccccc1)C(=O)c1ccc(S(=O)(=O)Nc2ccccc2)cc1	-10	26.3	15.6	28.5	61.1	-9.37	2.05	-4.89	2.88	–	–	–	–	–	–	–	–	–	–
N#Cc1cc(F)cc(-c2nc(-c3ccc(F)cn3)no2)c1	-9.52	-0.692	-9.37	-0.521	2.89	-4.29	-3.92	0.258	-9.34	–	–	–	–	–	–	–	–	–	–
CC(C)CC(=O)N1CCc2nc(-c3ccc(Br)cc3)nc(N(C)Cc3ccccc3)c2C1	–	–	–	–	–	–	–	–	–	-1.25	4.46	5	-1.09	35.8	-9.83	0.688	55.1	-3.26	–
C=C(C)[C@H]1CN[C@H](C(=O)O)[C@H]1CC(=O)O	-3.66	-0.636	-6.14	8.87	-2.38	-4.88	-5.09	2.41	-1.08	–	–	–	–	–	–	–	–	–	–
Cc1cc([C@@H](C)Nc2ccccc2C(=O)O)c2nc(N3CCOCC3)cc(=O)n2c1	2.93	20.9	12	10.5	50.8	0.798	3.71	-6.46	-1.31	–	–	–	–	–	–	–	–	–	–
CN1CCN(C(=O)C(C)(C)c2ccc(C(=O)Nc3cn4cc(-c5ccncc5)ccc4n3)cc2)CC1	-4.06	18.7	0.918	32.7	60.5	1.07	6.5	60.8	9.89	–	14.8	-1.57	33.1	36.3	–	0.265	-4.56	4.27	–
CCN(CC)CCCCNc1ncc2cc(-c3cc(OC)cc(OC)c3)c(NC(=O)NC(C)(C)C)nc2n1	–	–	–	–	–	–	–	–	–	3.2	21.2	-1.83	14.1	36.3	6.87	4.12	12	-4.79	–
O=C(O)Cc1cccc(OCCCN(Cc2cccc(C(F)(F)F)c2Cl)CC(c2ccccc2)c2ccccc2)c1	5.89	33.2	–	2.57	54	-4.83	8.18	61.5	2	–	–	–	–	–	–	–	–	–	106
CCCCN(CCCC)C(=O)CN1C[C@@H](c2cc(OC)c3c(c2)OCO3)[C@H](C(=O)O)[C@H]1CC(C)(C)CCC	-4.32	23.9	44.6	-4.04	46	-6.35	4.65	63.4	-7.2	–	–	–	–	–	–	–	–	–	–
CN(C)c1ncc2cc(-c3ccc(-c4ncccc4F)cc3Cl)c(=O)n(C[C@H]3OC[C@H](N)CO3)c2n1	1.58	26.9	-0.214	13.7	41.3	2.65	6.12	-0.894	-1.31	–	–	–	–	–	–	–	–	–	–
CCOc1cc(N2CCC(O)CC2)ccc1Nc1ncc2c(n1)N(C)c1ccccc1C(=O)N2C	2.66	19.5	-8.63	18.6	59.4	-3.56	12.3	17.2	1.48	–	–	–	–	–	–	–	–	–	–
N#CC1(c2ccccn2)CCN(Cc2cc(C(=O)N3CCCC3)c(=O)n3ccccc23)CC1	4.87	16.3	13.7	-9.61	39.8	-0.745	2.35	68.6	2	–	–	–	–	–	–	–	–	–	–
CCOC(=O)Nc1ccc2c(c1)N(C(=O)CN(CC)CC)c1ccccc1CC2	-9.67	15.8	-1.34	-4.04	97.9	-8.02	-1.75	65.5	4.63	–	–	–	–	–	–	–	–	–	–
C=CC(=O)Nc1ccc2[nH]c(=O)n(C3CCN(Cc4ccc(-c5nc6cc[nH]c(=O)c6cc5-c5ccccc5)cc4)CC3)c2c1	4.67	25.8	49.4	23.4	49	3.12	4.17	24	2.5	–	–	–	–	–	–	–	–	–	–
